How the values were obtained:
[1] = tested on: Human immunodeficiency virus 1; experiment: Antiviral activity against HIV-1 harboring RT Y181C mutant infected in human MT4 cells assessed as protection against virus-induced cytopathic effect incubated for 5 days by MTT assay; format: functional, organism-based; conditions: Human immunodeficiency virus 1, MT4, 120 h
[2] = Solubility of compound in Watson's distilled pure water measured after 24 hrs by HPLC analysis; format: physicochemical
[3] = tested on: Human immunodeficiency virus 1; experiment: Antiviral activity against HIV-1 harboring RT L100I mutant infected in human MT4 cells assessed as protection against virus-induced cytopathic effect incubated for 5 days by MTT assay; format: functional, organism-based; conditions: Human immunodeficiency virus 1, MT4, 120 h
[4] = tested on: Human immunodeficiency virus 1; experiment: Antiviral activity against HIV-1 harboring RT F227L/V106A double mutant infected in human MT4 cells assessed as protection against virus-induced cytopathic effect incubated for 5 days by MTT assay; format: functional, organism-based; conditions: Human immunodeficiency virus 1, MT4, 120 h
[5] = tested on: Human immunodeficiency virus 1; experiment: Antiviral activity against HIV-1 harboring RT Y188L mutant infected in human MT4 cells assessed as protection against virus-induced cytopathic effect incubated for 5 days by MTT assay; format: functional, organism-based; conditions: Human immunodeficiency virus 1, MT4, 120 h
[6] = Metabolic stability in dog liver microsomes assessed as half-life at 0.1 uM preincubated for 10 mins followed by NADPH addition and measured upto 60 mins by LC-MS/MS analysis; format: ADME, Canis lupus familiaris, Microsome; conditions: time < 70 min
[7] = tested on: Human immunodeficiency virus 1; experiment: Antiviral activity against HIV-1 harboring RT K103N/Y181C double mutant infected in human MT4 cells assessed as protection against virus-induced cytopathic effect incubated for 5 days by MTT assay; format: functional, organism-based; conditions: Human immunodeficiency virus 1, MT4, 120 h
[8] = Cytotoxicity against human MT4 cells assessed as reduction in cell viability measured after 5 days by MTT assay
[9] = Metabolic stability in human liver microsomes assessed as half-life at 0.1 uM preincubated for 10 mins followed by NADPH addition and measured upto 60 mins by LC-MS/MS analysis; format: ADME, Microsome; conditions: time < 70 min
[10] = Solubility of compound in phosphate buffer at pH 7.4 measured after 24 hrs by HPLC analysis; format: physicochemical
[11] = Metabolic stability in rat liver microsomes assessed as half-life at 0.1 uM preincubated for 10 mins followed by NADPH addition and measured upto 60 mins by LC-MS/MS analysis; format: ADME, Microsome; conditions: time < 70 min
[12] = Solubility of compound in phosphate buffer at pH 7.0 measured after 24 hrs by HPLC analysis; format: physicochemical
[13] = Selectivity index, ratio of CC50 for human MT4 cells to EC50 for wild type HIV-1 IIIB infected in human MT4 cellS; conditions: MT4 cells
[14] = tested on: Human immunodeficiency virus 1; experiment: Antiviral activity against HIV-1 harboring RT K103N mutant infected in human MT4 cells assessed as protection against virus-induced cytopathic effect incubated for 5 days by MTT assay; format: functional, organism-based; conditions: Human immunodeficiency virus 1, MT4, 120 h
[15] = target: Human immunodeficiency virus type 1 reverse transcriptase (Human immunodeficiency virus 1, UniProt Q72547); experiment: Inhibition of recombinant wild type HIV-1 Reverse transcriptase incubated for 40 mins by Pico-green reagent based fluorescence analysis
[16] = tested on: Human immunodeficiency virus 1; experiment: Antiviral activity against wildtype HIV-1 IIIB infected in human MT4 cells assessed as protection against virus-induced cytopathic effect incubated for 5 days by MTT assay; format: functional, organism-based; conditions: Human immunodeficiency virus 1, IIIB, MT4, 120 h
[17] = tested on: Human immunodeficiency virus 1; experiment: Antiviral activity against HIV-1 harboring RT E138K mutant infected in human MT4 cells assessed as protection against virus-induced cytopathic effect incubated for 5 days by MTT assay; format: functional, organism-based; conditions: Human immunodeficiency virus 1, MT4, 120 h

Row | Structure (SMILES) | EC50 [1] [nM] | solubility at 24 h [2] [µg/mL] | EC50 [3] [nM] | EC50 [4] [nM] | EC50 [5] [nM] | half-life at 0.1 µM [6] [min] | EC50 [7] [nM] | CC50 at 120 h ([8]; MT4 cells) [nM] | half-life at 0.1 µM [9] [min] | solubility at 24 h [10] [µg/mL] | half-life at 0.1 µM [11] [min] | solubility at 24 h [12] [µg/mL] | selectivity ratio [13] | EC50 [14] [nM] | IC50 [15] [nM] | EC50 [16] [nM] | EC50 [17] [nM] | CC50 at 120 h ([8]; mt4) [nM]
1 | Cc1cc(C#N)cc(C)c1Oc1nc(Nc2ccc(C#N)cc2)nc(N)c1Br [ETRAVIRINE] | 13 | < 1 | 4 | 12 | 17 | 152 | 43 | > 4610 | 64.1 | < 1 | 13.5 | < 1 | – | – | – | – | – | –
2 | Cc1cc(-c2ccncc2)cc(C)c1Nc1nc(Nc2ccc(C#N)cc2)ncc1-c1ccnc(Cl)c1 | 56 | – | 55 | 1760 | 83 | – | 597 | 158000 | – | – | – | – | 27300 | 19 | 98 | 6 | 26 | –
3 | N#Cc1ccc(Nc2nccc(Nc3c(F)cc(-c4ccncc4)cc3F)n2)cc1 | 6 | – | 4 | 299 | 57 | – | 64 | – | 9.6 | – | 13 | – | – | 2 | 31 | 2 | 10 | 6000
4 | Cc1cc(-c2ccncc2)cc(C)c1Nc1nc(Nc2ccc(C#N)cc2)ncc1-c1ccc(N)nc1 | 41 | – | 39 | 1140 | 50 | – | 156 | 4870 | – | – | – | – | 575 | 11 | 94 | 8 | 11 | –
5 | Cc1ccc(-c2cnc(Nc3ccc(C#N)cc3)nc2Nc2c(C)cc(-c3ccncc3)cc2C)cn1 | 47 | – | 49 | 496 | 54 | – | 401 | 198000 | – | – | – | – | 38900 | 6 | 132 | 5 | 7 | –
6 | Cc1cc(-c2ccncc2)cc(C)c1Nc1nc(Nc2ccc(C#N)cc2)ncc1-c1cccs1 | 39 | – | 18 | 136 | 29 | – | 148 | > 264000 | – | – | – | – | > 24100 | 5 | 75 | 11 | 12 | –
7 | Cc1cc(/C=C/C#N)cc(C)c1Nc1ccnc(Nc2ccc(C#N)cc2)n1 [RILPIVIRINE] | – | – | – | – | – | 79.3 | – | > 6350 | 16 | – | 7.29 | – | – | – | – | 4 | – | –
8 | Cc1cc(-c2ccncc2)cc(C)c1Nc1nc(Nc2ccc(C#N)cc2)ncc1-c1ccnc(F)c1 | 45 | – | 94 | 1370 | 45 | – | 425 | > 256000 | – | – | – | – | > 31500 | 7 | 111 | 8 | 8 | –

— ChEMBL document CHEMBL6120973 (J Med Chem, 2024)
